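1) Cells in 96-well plates. 2) Compound, 48 h, 5 concentrations. 3) Linear interpolation between surrounding doses. 4) Unreached endpoint = highest concentration. The concentration for 50% growth inhibition is given as GI50.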 Active and inactive are the calls of the source. Rule as the data show it: active = GI50 up to about 1.1 µM and inactive = higher.
Key:
Test in all cases: NCI tumour cell line growth inhibition, 48 h
SNB-78 = test system: SNB-78
XF498 = test system: XF498
RXF 631 = test system: RXF 631
LXFL 529 = test system: LXFL 529
DLD-1 = test system: DLD-1
DMS-114 = test system: DMS-114
KM-20L2 = test system: KM-20L2
MDA-N = test system: MDA-N
Hs-578T = test system: Hs-578T

Row | SMILES | GI50 (SNB-78) | GI50 (XF498) | GI50 (RXF 631) | GI50 (LXFL 529) | GI50 (DLD-1) | GI50 (DMS-114) | GI50 (KM-20L2) | GI50 (MDA-N) | GI50 (Hs-578T)
1 | O=C1c2ccccc2C(=O)c2c(O)c(NCCCNCCO)cc(O)c21 | 11.2 µM (inactive) | 16 µM (inactive) | 6.34 µM (inactive) | 11.1 µM (inactive) | 6.49 µM (inactive) | 11 µM (inactive) | – | – | –
2 | COc1ccc(C(=O)Nc2ccccc2)cc1[N+](=O)[O-] | > 100 µM (inactive) | > 100 µM (inactive) | > 100 µM (inactive) | > 100 µM (inactive) | > 100 µM (inactive) | 52.4 µM (inactive) | > 100 µM (inactive) | – | –
3 | Cc1cc(C)nc(NS(=O)(=O)c2ccc(NC(=O)c3cccn4c(=O)c5ccccc5nc34)cc2)n1 | 39.4 µM (inactive) | 54.2 µM (inactive) | – | 29.3 µM (inactive) | 31.9 µM (inactive) | – | > 100 µM (inactive) | – | –
4 | CCOC(=O)c1c(CN2CCNCC2)nc2ccc(Cl)cc2c1-c1ccccc1 | 8.18 µM (inactive) | 3.15 µM (inactive) | 2.56 µM (inactive) | 1.74 µM (inactive) | 2.98 µM (inactive) | 1.91 µM (inactive) | 2.64 µM (inactive) | 5.78 µM (inactive) | –
5 | CC(NS(=O)(=O)c1ccc([N+](=O)[O-])cc1)C(=O)O (stereo unspecified) | – | > 100 µM (inactive) | > 100 µM (inactive) | > 100 µM (inactive) | > 100 µM (inactive) | – | > 100 µM (inactive) | – | –
6 | COC(=O)CC1C(=O)OCc2c1cc1n(c2=O)Cc2c-1nc1ccccc1c2OC (stereo unspecified) | – | > 100 µM (inactive) | – | > 100 µM (inactive) | – | 34.3 µM (inactive) | > 100 µM (inactive) | – | –
7 | CC(=O)N1CCN(C=S)CC1 | > 100 µM (inactive) | > 100 µM (inactive) | > 100 µM (inactive) | > 100 µM (inactive) | > 100 µM (inactive) | > 100 µM (inactive) | > 100 µM (inactive) | – | –
8 | CC(=O)NNc1nc(C)c(C(=O)NNC(=O)C(=O)Nc2c(C)cccc2C)s1 | 36.1 µM (inactive) | – | 26.2 µM (inactive) | 41.8 µM (inactive) | 45.5 µM (inactive) | – | 35.2 µM (inactive) | – | –
9 | O=C1[C@@H]2C3C=CC([C@H]4C(=O)N(CO)C(=O)[C@@H]34)[C@@H]2C(=O)N1CO | > 100 µM (inactive) | > 100 µM (inactive) | – | 79.1 µM (inactive) | 48.5 µM (inactive) | 32.1 µM (inactive) | > 31.6 µM (inactive) | – | –
10 | c1ccc2c(c1)N=C(c1cccc3ccccc13)CC(c1cccc3ccccc13)S2 (stereo unspecified) | 5.53 µM (inactive) | 9.79 µM (inactive) | – | 3.27 µM (inactive) | 3.6 µM (inactive) | 2.74 µM (inactive) | 3.24 µM (inactive) | – | –
11 | COc1ccc(/C=C/c2cc(OC)c(OC)c(OC)c2)cc1OC | 36.1 µM (inactive) | 77.8 µM (inactive) | > 100 µM (inactive) | 78.9 µM (inactive) | 81.5 µM (inactive) | > 100 µM (inactive) | > 100 µM (inactive) | – | –
12 | CCOC(=O)c1ccc(C)c(/N=N/N(C)C)c1 | – | > 100 µM (inactive) | – | – | > 100 µM (inactive) | > 100 µM (inactive) | > 100 µM (inactive) | – | –
13 | CCOC1=C2N=C(C(CC)c3ccc(F)cc3)N=C2C(=O)c2ccccc21 (stereo unspecified) | 27.8 µM (inactive) | 17.5 µM (inactive) | – | 23.9 µM (inactive) | 7.55 µM (inactive) | 22.4 µM (inactive) | 19 µM (inactive) | – | –
14 | COC(=O)CC(=O)OC | > 100 µM (inactive) | > 100 µM (inactive) | – | > 100 µM (inactive) | > 100 µM (inactive) | > 100 µM (inactive) | > 100 µM (inactive) | – | –
15 | CCCCCC(=O)C(C)C1=Nc2nnc(CCCCCCCc3nnc4n3C(=O)C(C(C)C(=O)CCCCC)=N4)n2C1=O (stereo unspecified) | – | > 100 µM (inactive) | > 100 µM (inactive) | > 100 µM (inactive) | > 100 µM (inactive) | > 100 µM (inactive) | > 100 µM (inactive) | – | –
16 | O=C1NC2C3CC(OCc4ccccc4)(OCc4ccccc4)C2OC3O1 (stereo unspecified) | < 0.005 µM (active) | > 50 µM (inactive) | – | < 0.005 µM (active) | > 50 µM (inactive) | > 50 µM (inactive) | – | – | –
17 | CCOC(=O)c1[nH]c2c(OC)n[n+]([O-])cc2c1[N+](=O)[O-] | 19.8 µM (inactive) | 16.1 µM (inactive) | – | 17.3 µM (inactive) | 17.2 µM (inactive) | 22.2 µM (inactive) | 15.5 µM (inactive) | – | –
18 | Cc1c2c(cc[n+]1C)O[B-](c1ccccc1)(c1ccccc1)O2 | 88.3 µM (inactive) | 35 µM (inactive) | 67.6 µM (inactive) | 42.9 µM (inactive) | 60 µM (inactive) | 61.1 µM (inactive) | 71 µM (inactive) | – | –
19 | CN(C(=O)C12C3C4C5C3C1(C(=O)C13C6C7C8C6C1C8C73)C5C42)C(C)(C)C (stereo unspecified) | > 50 µM (inactive) | > 50 µM (inactive) | – | > 50 µM (inactive) | > 23.2 µM (inactive) | > 23.6 µM (inactive) | > 50 µM (inactive) | – | –
20 | O=[N+]([O-])c1cc(C(F)(F)F)cc2n[se]nc12 | 12.3 µM (inactive) | 2.39 µM (inactive) | 11 µM (inactive) | 1.72 µM (inactive) | 3.18 µM (inactive) | 2.36 µM (inactive) | 6.81 µM (inactive) | 1.91 µM (inactive) | 19.3 µM (inactive)
21 | Cc1ccc(C2COc3cc(O)c(O)cc3C2)cc1 (stereo unspecified) | 31.6 µM (inactive) | 9.12 µM (inactive) | – | – | 17.5 µM (inactive) | 12.7 µM (inactive) | 35.9 µM (inactive) | – | –
22 | CN(C)CC(C)(C)/C(=N\Nc1ccccc1)c1ccccc1 | 70.1 µM (inactive) | – | – | 18.7 µM (inactive) | 30.4 µM (inactive) | 46.7 µM (inactive) | 16.8 µM (inactive) | – | –
23 | O=C1[C@@H]2C(c3cccc([N+](=O)[O-])c3)=NO[C@@H]2C(=O)N1c1ccc(Cc2ccc(N3C(=O)[C@H]4C(c5cccc([N+](=O)[O-])c5)=NO[C@H]4C3=O)cc2)cc1 | > 100 µM (inactive) | – | > 100 µM (inactive) | > 100 µM (inactive) | > 100 µM (inactive) | > 100 µM (inactive) | > 100 µM (inactive) | – | –
24 | Clc1ccc(SCCCCCCCCCCSc2ccc(Cl)cc2)cc1 | > 100 µM (inactive) | > 100 µM (inactive) | – | > 100 µM (inactive) | > 100 µM (inactive) | > 100 µM (inactive) | > 63.7 µM (inactive) | – | –
25 | C[C@H]1C(=O)CC[C@]2(C)CCC(C(C)(C)O)CC12O (stereo partly specified) | > 100 µM (inactive) | – | > 100 µM (inactive) | > 100 µM (inactive) | > 100 µM (inactive) | > 100 µM (inactive) | > 100 µM (inactive) | – | –
26 | CC1(C)C(=NNC(=O)C[N+](C)(C)C)C(C)(C)C1=NNC(=O)C[N+](C)(C)C | > 100 µM (inactive) | > 100 µM (inactive) | > 100 µM (inactive) | > 100 µM (inactive) | > 100 µM (inactive) | > 100 µM (inactive) | > 100 µM (inactive) | – | –

Source: ChEMBL document CHEMBL1201862, “PubChem BioAssay data set” (2004)
